Measurements taken from patent US12528774B2, “Thiosemicarbazone compounds and uses thereof” (The Regents of the University of California, priority 2019, dated 2026).

Key:
[1] = target: dihydroorotate dehydrogenase (DHODH) (Homo sapiens, UniProt Q02127); assay: Recombinant DHODH activity assay; type: biochemical; conditions: HCT-13 100 nM, 1 μM; Cu(II) 20 μM
Experimental: FIG. 5A: rescue of HCT-13 (25 nM)-induced cell death by Uridine (rU) (200 μM), Pyruvate (1 mM), or both following 48h of treatment. FIG. 5B: measurement of DHODH activity using recombinant DHODH assay following treatment with indicated perturbations for 2 min. DHODH inhibitor used: NITD-982-1 μM; HCT-13-100 nM, 1 μM, (100 nM data shown); Cu(II)—20 μM. (mean±SD, n=2, Student t-test, * P<0.05).
DHODH activity: Recombinant protein was incubated in an aqueous solution (total volume, 1.0 mL) containing 500 μM DHO (Sigma, D1728), 200 mM K2CO3-HCl (pH 8.0), 0.2% triton x-100, and 100 μM coenzyme Q10 (Sigma, C9538) at 37° C. for 0, 15, 30, 45, or 60 min. An aliquot (100 μL) of the mixture of enzyme reaction mixture or cell/tissue lysate was mixed with 100 μL of 0, 0.5, or 1.0 μM orotic acid, 50 μL of H2O, 250 μL of 4.0 mM 4-TFMBAO (Sigma, 422231), 250 μL of 8.0 mM K3[Fe(CN)6] (Sigma, 244023), and 250 μL of 80 mM K2CO3 (Sigma, P5833) and then heated at 80° C. for 4.0 min. The reaction was stopped by cooling in an ice-water bath and the absorbance was measured with a spectrofluorometer (FP-6300 Jasco, Tokyo, Japan): excitation and emission wavelengths were 340 nm and 460 nm, respectively.

[2] = tested on: MIAPACA2 cells; assay: Western blot of treated MIAPACA2 cells; type: cell-based, human; conditions: for phosphorylation of CHEK1 and CHEK2: HCT13 + Cu(II)
Experimental: FIGS. 2A-2I. FIG. 2A: representative immunoblots of MIAPACA2 PDAC cells treated as indicated for 24h. FIGS. 2B-2C: reactive oxygen species (ROS) measurement using CM-H2DCFDA staining after HCT13 (25 nM)+Cu(II) (20 μM) treatment for 24h; mean fluorescence intensity (MFI); mean±SD, n=2, Student t-test, ***P<0.001. FIG. 2D-2E: mitochondrial ROS detection using MitoSOX staining in MIAPACA2 PDAC cells treated with HCT-13 (25 nM)+Cu(II) (20 μM) for 24h; mean±SD, n=2, Student t-test, ***P<0.001. FIG. 2F: oxygen consumption rate (OCR) of MIAPACA2 PDAC cells treated with HCT-13 (25 nM)+Cu(II) (20 μM). FIG. 2G: OCR of isolated mitochondria measured with or without HCT-13 (25 nM)+Cu(II) (20 μM). FIG. 2H: viability of 143 BTK parental (wild type, WT) and po cells after 48 h of treatment with the indicated HCT-13 concentrations+Cu(II) (20 μM) treatment, assessed with trypan blue staining; mean±SD, n=2, Student t-test, ***P<0.001. FIG. 2I: cell viability by trypan blue staining in MIAPACA2 PDAC cells to interrogate the interaction of HCT-13 (25 nM)+Cu(II) (20 μM) with 2-DG (2 mM) for 48 h; mean±SD, n=2, Student t-test, ***P<0.001.
FIGS. 4A-4G show the chemical genomics screen identifying the replication stress response pathway as an actionable co-dependency of HCT13-treated cells. FIG. 4A: experimental design of a synthetic lethality screen using a library of protein kinase inhibitors against HCT13-treated cells in the presence of Cu(II) (20 μM). FIG. 4B: radar plot of screen results. FIG. 4C: z-score values for kinase inhibitors within the DNA damage response/replication stress response (DDR/RSR) pathway module. FIG. 4D: representative immunoblot of replication stress and cell death biomarkers in MIAPACA2 PDAC cells treated with HCT13 (10 nM)+Cu(II) (20 μM). […] (mean±SD, n=2, one-way ANOVA corrected for multiple comparisons by Bonferroni adjustment, * P<0.05; ** P<0.01; *** P<0.001; **** P<0.0001).
(§1) Western blot: Cells were lysed using RIPA buffer supplemented with protease (ThermoFisher, 78,430) and phosphatase (ThermoFisher, 78,420) inhibitors, scraped, sonicated, and centrifuged (20,000×g at 4° C.). Protein concentrations in the supernatant were determined using the Micro BCA Protein Assay kit (Thermo), and equal amounts of protein were resolved on pre-made Bis-Tris polyacrylamide gels (Life Technologies). Primary antibodies: pAMPKT172 (Cell signaling, #2535, 1:1000), HO-1 (Cell signaling, #5061S, 1:1000), pS345 CHEK1 (Cell signaling, #2348L, 1:1000), pT68 CHEK2 (Cell signaling, #2197 S, 1:1000), pS139 H2A.X (Millipore, 05-636, 1:1000), clvd. Casp3 (Cell signaling, #9662, 1:1000), and anti-actin (Cell Signaling Technology, 9470, 1:10,000). Primary antibodies were stored in 5% BSA (Sigma-Aldrich) and 0.1% NaN3 in TBST solution. Anti-rabbit IgG HRP-linked (Cell Signaling Technology, 7074, 1:2500) and anti-mouse IgG HRP-linked (Cell Signaling Technology, 7076, 1:2500) were used as secondary antibodies. Chemiluminescent substrates (ThermoFisher Scientific, 34,077 and 34,095) and autoradiography film (Denville) were used for detection.
as §1, with “blot.” for “blot:”, “Anti-rabbit IgG HRP-linked (Cell Signaling Technology, 7074, 1:2500) and anti-mouse IgG HRP-linked (Cell Signaling Technology, 7076, 1:2500) were used as secondary antibodies. Chemiluminescent substrates (ThermoFisher Scientific, 34,077 and 34,095) and autoradiography film (Denville) were used for detection.” left out

Sequence of dihydroorotate dehydrogenase (DHODH) (Q02127 whole entry, species assumed): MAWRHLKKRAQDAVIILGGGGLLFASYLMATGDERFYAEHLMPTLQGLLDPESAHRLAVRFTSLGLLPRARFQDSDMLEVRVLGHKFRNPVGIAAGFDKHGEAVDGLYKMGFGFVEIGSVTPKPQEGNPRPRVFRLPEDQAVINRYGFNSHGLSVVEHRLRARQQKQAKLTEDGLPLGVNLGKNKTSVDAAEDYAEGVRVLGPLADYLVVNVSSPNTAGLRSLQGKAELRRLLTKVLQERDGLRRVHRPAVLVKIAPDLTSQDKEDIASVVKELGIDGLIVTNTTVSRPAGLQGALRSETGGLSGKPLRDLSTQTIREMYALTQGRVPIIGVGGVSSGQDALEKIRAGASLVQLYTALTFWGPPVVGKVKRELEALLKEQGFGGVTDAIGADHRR

CN(C)C(=S)N/N=C/c1nccc2cc(F)ccc12 (mixture of isomers) [HCT13, (E)-2-((6-Fluoroisoquinolin-1-yl)methylene)-N,N-dimethylhydrazine-1-carbothioamide and (Z)-2-((6-Fluoroisoquinolin-1-yl)methylene)-N,N-dimethylhydrazine-1-carbothioamide]
affinity for DHODH [1]: did not demonstrate affinity
heme oxygenase-1 (HO-1) levels ([2]; 24 h): increased
AMPK phosphorylation (T172) ([2]; Cu(II)-supplemented cells, 24 hours): induction
phosphorylation of CHEK1 and CHEK2 [2]: consistently observed phosphorylation
phosphorylation of CHEK1 and CHEK2 ([2]; listed as HCT-13): phosphorylation of CHEK1 and CHEK2 kinases was observed
DNA damage marker pH2AX ([2]; HCT-13 + Cu(II)): induction of DNA damage marker pH2AX
apoptotic marker caspase 3 ([2]; HCT-13 + Cu(II)): cleavage of apoptotic marker caspase 3
